Data published in PubChem BioAssay AID330 (DTP/NCI, 2004).
“And” between values parts separate entries of the source, which are not always exact repeats. Equal values may be shown once. Toxic doses and inconclusive results are not listed.

Tested on: P388 leukemia ip, CD2F1 mice, survival T/C
Assay: NCI In Vivo Anticancer Drug Screen. Data for tumor model P388 Leukemia (intraperitoneal) in CD2F1 (CDF1) mice
Conditions: endpoint: median survival time, higher = longer survival
Outline: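 Mice carrying the transplanted tumor received test compound or vehicle. Survival was recorded in each group, and the value is the treated-group measurement divided by that of the vehicle-treated control group.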

[1] = dose: 25.0 mg/kg/injection, schedule: Q01DX005 (ip), vehicle: Klucel (hydroxypropylcellulose) (HPC)
[2] = dose: 50.0 mg/kg/injection, schedule: Q01DX005 (ip), vehicle: Klucel (hydroxypropylcellulose) (HPC)
[3] = dose: 200.0 mg/kg/injection, schedule: Q01DX005 (ip), vehicle: Klucel (hydroxypropylcellulose) (HPC)
[4] = dose: 50.0 mg/kg/injection, schedule: Q01DX009 (ip), vehicle: saline with Tween-80
[5] = dose: 100.0 mg/kg/injection, schedule: Q01DX009 (ip), vehicle: saline with Tween-80
[6] = dose: 60.0 mg/kg/injection, schedule: Q01DX005 (ip), vehicle: saline with Tween-80
[7] = dose: 120.0 mg/kg/injection, schedule: Q01DX005 (ip), vehicle: saline with Tween-80
[8] = dose: 240.0 mg/kg/injection, schedule: Q01DX005 (ip), vehicle: saline with Tween-80
[9] = dose: 25.0 mg/kg/injection, schedule: Q01DX009 (ip), vehicle: Klucel (hydroxypropylcellulose) (HPC)
[10] = dose: 100.0 mg/kg/injection, schedule: Q01DX005 (ip), vehicle: Klucel (hydroxypropylcellulose) (HPC)
[11] = dose: 100.0 mg/kg/injection, schedule: Q01DX001 (ip), vehicle: saline with Tween-80
[12] = dose: 200.0 mg/kg/injection, schedule: Q01DX001 (ip), vehicle: saline with Tween-80
[13] = dose: 400.0 mg/kg/injection, schedule: Q01DX001 (ip), vehicle: saline with Tween-80

COc1ccc2cc3[n+](cc2c1O)CCc1cc2c(cc1-3)OCO2
T/C (dose: 6.25 mg/kg/injection, schedule: Q01DX005 (ip), vehicle: Klucel (hydroxypropylcellulose) (HPC)): 99 % of control and 106 % of control | T/C (dose: 12.5 mg/kg/injection, schedule: Q01DX005 (ip), vehicle: Klucel (hydroxypropylcellulose) (HPC)): 107 % of control and 96 % of control | T/C [1]: 101 % of control and 117 % of control | T/C [2]: 111 % of control | T/C [3]: 179 % of control

CCCCCCOCC(=O)O
T/C [4]: 102 % of control | T/C [5]: 91 % of control

NC(CCCCCCC(N)C(=O)c1ccccc1)C(=O)c1ccccc1 (stereo unspecified)
T/C [6]: 98 % of control | T/C [7]: 98 % of control | T/C [8]: 91 % of control

N#Cc1c(NC(=O)CCC(=O)O)ccc2ccccc12
T/C (dose: 50.0 mg/kg/injection, schedule: Q01DX009 (ip), vehicle: saline): 99 % of control | T/C (dose: 100.0 mg/kg/injection, schedule: Q01DX009 (ip), vehicle: saline): 114 % of control | T/C (dose: 200.0 mg/kg/injection, schedule: Q01DX009 (ip), vehicle: saline): 114 % of control

c1ccc2c(CC3NCCN3)cccc2c1
T/C (dose: 6.25 mg/kg/injection, schedule: Q01DX009 (ip), vehicle: saline): 100 % of control | T/C (dose: 12.5 mg/kg/injection, schedule: Q01DX009 (ip), vehicle: saline): 100 % of control | T/C (dose: 25.0 mg/kg/injection, schedule: Q01DX009 (ip), vehicle: saline): 92 % of control

C=CC(C)(C)C12CC3C(=O)N/C(=C\c4cnc[nH]4)C(=O)N3C1Nc1ccccc12 (stereo unspecified)
T/C (dose: 6.25 mg/kg/injection, schedule: Q01DX009 (ip), vehicle: Klucel (hydroxypropylcellulose) (HPC)): 118 % of control and 97 % of control | T/C (dose: 6.25 mg/kg/injection, schedule: Q01DX009 (ip), vehicle: saline with Tween-80): 86 % of control | T/C (dose: 12.5 mg/kg/injection, schedule: Q01DX009 (ip), vehicle: Klucel (hydroxypropylcellulose) (HPC)): 116 % of control and 95 % of control | T/C [9]: 98 % of control and 106 % of control | T/C (dose: 25.0 mg/kg/injection, schedule: Q01DX009 (ip), vehicle: saline with Tween-80): 92 % of control | T/C (dose: 50.0 mg/kg/injection, schedule: Q01DX009 (ip), vehicle: Klucel (hydroxypropylcellulose) (HPC)): 106 % of control and 109 % of control | T/C [4]: 100 % of control

Cc1cc2c(cc1C)C(=O)c1c(O)c3c(c(O)c1C2=O)C[C@@](O)(C(=O)CO)C[C@@H]3OC1CC(N)C(O)C(C)O1 (stereo partly specified)
T/C (dose: 0.39 mg/kg/injection, schedule: Q04DX003 (ip), vehicle: water): 115 % of control | T/C (dose: 0.78 mg/kg/injection, schedule: Q04DX003 (ip), vehicle: water): 115 % of control | T/C (dose: 1.56 mg/kg/injection, schedule: Q04DX003 (ip), vehicle: water): 110 % of control | T/C (dose: 3.13 mg/kg/injection, schedule: Q04DX003 (ip), vehicle: water): 151 % of control and 157 % of control | T/C (dose: 6.25 mg/kg/injection, schedule: Q04DX003 (ip), vehicle: water): 190 % of control | T/C (dose: 25.0 mg/kg/injection, schedule: Q04DX003 (ip), vehicle: water): 100 % of control

CC(=O)NC(C(=O)O)C(C)(C)S (stereo unspecified)
T/C [2]: 100 % of control | T/C [10]: 100 % of control | T/C [3]: 95 % of control

CC(=O)OC1OC(C(OC(C)=O)C(Cl)Cl)OC1C(Cl)Cl (stereo unspecified)
T/C [4]: 97 % of control | T/C [5]: 105 % of control | T/C (dose: 200.0 mg/kg/injection, schedule: Q01DX009 (ip), vehicle: saline with Tween-80): 112 % of control

CC(C)N1C(=O)c2ccccc2S12c1ccccc1C(=O)N2C(C)C
T/C (dose: 100.0 mg/kg/injection, schedule: Q04DX003 (ip), vehicle: Klucel (hydroxypropylcellulose) (HPC)): 93 % of control | T/C (dose: 200.0 mg/kg/injection, schedule: Q04DX003 (ip), vehicle: Klucel (hydroxypropylcellulose) (HPC)): 90 % of control | T/C (dose: 400.0 mg/kg/injection, schedule: Q04DX003 (ip), vehicle: Klucel (hydroxypropylcellulose) (HPC)): 90 % of control

O=C(/C=C/c1ccc2c(c1)OCO2)c1ccccc(=O)c1O
T/C [1]: 95 % of control | T/C [2]: 100 % of control | T/C [10]: 101 % of control | T/C [3]: 118 % of control

Cc1cc(C)c(CCl)c(C)c1CCl
T/C [9]: 106 % of control | T/C (dose: 100.0 mg/kg/injection, schedule: Q01DX009 (ip), vehicle: Klucel (hydroxypropylcellulose) (HPC)): 100 % of control

Cc1cc(=O)oc2cc(OC(=O)Nc3ccc(Cl)cc3C(F)(F)F)ccc12
T/C [6]: 90 % of control | T/C [7]: 95 % of control

C[Si](C)(C)/N=C/O[Si](C)(C)C
T/C (dose: 60.0 mg/kg/injection, schedule: Q01DX005 (ip), vehicle: saline): 100 % of control | T/C (dose: 120.0 mg/kg/injection, schedule: Q01DX005 (ip), vehicle: saline): 101 % of control | T/C (dose: 240.0 mg/kg/injection, schedule: Q01DX005 (ip), vehicle: saline): 108 % of control

CC(C)(C)Nc1nc2ccccc2c(=O)o1
T/C [11]: 101 % of control | T/C [12]: 106 % of control | T/C [13]: 116 % of control

CC(C)(NC(=O)c1cc(Cl)c2ccccc2c1O)C(=O)O
T/C (dose: 50.0 mg/kg/injection, schedule: Q01DX009 (ip), vehicle: saline + alcohol): 97 % of control | T/C (dose: 100.0 mg/kg/injection, schedule: Q01DX009 (ip), vehicle: saline + alcohol): 94 % of control | T/C (dose: 200.0 mg/kg/injection, schedule: Q01DX009 (ip), vehicle: saline + alcohol): 103 % of control

C=CCn1c(=O)c2[nH]c(Cl)nc2n(CC)c1=O
T/C (dose: 16.0 mg/kg/injection, schedule: Q01DX009 (ip), vehicle: Klucel (hydroxypropylcellulose) (HPC)): 100 % of control and 105 % of control | T/C (dose: 32.0 mg/kg/injection, schedule: Q01DX009 (ip), vehicle: Klucel (hydroxypropylcellulose) (HPC)): 106 % of control and 94 % of control | T/C (dose: 64.0 mg/kg/injection, schedule: Q01DX009 (ip), vehicle: Klucel (hydroxypropylcellulose) (HPC)): 102 % of control and 106 % of control

C=CC1CCCC[S+]1CC(=O)OCC (stereo unspecified)
T/C (dose: 25.0 mg/kg/injection, schedule: Q04DX002 (ip), vehicle: saline with Tween-80): 91 % of control | T/C (dose: 50.0 mg/kg/injection, schedule: Q04DX002 (ip), vehicle: saline with Tween-80): 101 % of control | T/C (dose: 100.0 mg/kg/injection, schedule: Q04DX002 (ip), vehicle: saline with Tween-80): 103 % of control and 109 % of control

OCCN1CCN(Cc2cc(Cl)cc(CN3CCN(CCO)CC3)c2O)CC1
T/C [6]: 100 % of control | T/C [7]: 97 % of control | T/C [8]: 100 % of control

ClCCN(CCCl)CC(Cl)COc1cccc2ccccc12 (stereo unspecified)
T/C (dose: 0.62 mg/kg/injection, schedule: Q01DX009 (ip), vehicle: saline): 106 % of control and 108 % of control | T/C (dose: 1.25 mg/kg/injection, schedule: Q01DX009 (ip), vehicle: saline): 100 % of control and 108 % of control | T/C (dose: 2.5 mg/kg/injection, schedule: Q01DX009 (ip), vehicle: saline): 86 % of control and 97 % of control

O=S1(=O)N=C([O-])c2ccc(C[N+]3(CCCl)CCN(CCCl)CC3)cc21
T/C (dose: 12.5 mg/kg/injection, schedule: Q01DX009 (ip), vehicle: DMSO): 87 % of control | T/C (dose: 25.0 mg/kg/injection, schedule: Q01DX009 (ip), vehicle: DMSO): 105 % of control | T/C (dose: 50.0 mg/kg/injection, schedule: Q01DX009 (ip), vehicle: DMSO): 87 % of control | T/C (dose: 100.0 mg/kg/injection, schedule: Q01DX009 (ip), vehicle: DMSO): 115 % of control

[CH3][Sn]([CH3])([O]C(=O)c1ccccc1)[O]C(=O)c1ccccc1
T/C [2]: 107 % of control | T/C [10]: 108 % of control

O=C(O)C1C2OC2C2OC2C1C(=O)O (stereo unspecified)
T/C (dose: 25.0 mg/kg/injection, schedule: Q01DX001 (ip), vehicle: Klucel (hydroxypropylcellulose) (HPC)): 89 % of control | T/C (dose: 50.0 mg/kg/injection, schedule: Q01DX001 (ip), vehicle: Klucel (hydroxypropylcellulose) (HPC)): 92 % of control | T/C (dose: 100.0 mg/kg/injection, schedule: Q01DX001 (ip), vehicle: Klucel (hydroxypropylcellulose) (HPC)): 88 % of control

COC(=O)[C@]1(C)CCC[C@@]2(C)[C@@H]3C[C@@H]4[C@H]5C[C@@]3(CC[C@@H]21)C[C@@]45C
T/C [1]: 100 % of control | T/C [2]: 97 % of control | T/C [10]: 97 % of control | T/C [3]: 95 % of control

CN(CC(=O)O)C(=S)c1ccccc1
T/C [11]: 95 % of control | T/C [12]: 95 % of control | T/C [13]: 95 % of control

CS(=O)(=O)C#CCCCCCCC#CS(C)(=O)=O
T/C (dose: 6.25 mg/kg/injection, schedule: Q04DX002 (ip), vehicle: saline): 104 % of control | T/C (dose: 12.5 mg/kg/injection, schedule: Q04DX002 (ip), vehicle: saline): 97 % of control | T/C (dose: 25.0 mg/kg/injection, schedule: Q04DX002 (ip), vehicle: saline): 102 % of control
